The source made the active and inactive calls. The rule behind the calls is not given here.
Legend:
HCT-116 [1] = assay: Cell cycle arrest in human HCT116 cells assessed as accumulation at G2/M phase at 1 uM after 24 hrs by propidium iodide staining-based FACS analysis (reference value: 29 +/- 8 %); type: functional
Homo sapiens = species: Homo sapiens; assay: Inhibition of human DNA topoisomerase 2 assessed as inhibition of DNA cleavage
Calf thymus DNA [2] = assay: Binding affinity to calf thymus DNA assessed as hypochromic shift at 20 uM by UV/visible spectrophotometry; type: nucleic-acid assay; details: Bos taurus
HCT-116 [3] = assay: Cell cycle arrest in human HCT116 cells assessed as accumulation at S phase at 1 uM after 24 hrs by propidium iodide staining-based FACS analysis (reference value: 48 +/- 6 %); type: functional
HCT-116 [4] = assay: Cell cycle arrest in human HCT116 cells assessed as accumulation at S phase at 0.1 uM after 24 hrs by propidium iodide staining-based FACS analysis (reference value: 48 +/- 6 %); type: functional
HCT-116 [5] = assay: Cell cycle arrest in human HCT116 cells assessed as accumulation at G1 phase at 1 uM after 24 hrs by propidium iodide staining-based FACS analysis (reference value: 23 +/- 2 %); type: functional
[6] = Drug uptake in human H460 cell endoplasmic reticulum at 10 uM after 2 hrs by fluorescence microscopy; type: ADME, cell-based; details: h460, 2 h
HCT-116 [7] = assay: Cytotoxicity against human HCT116 cells after 72 hrs by MTT assay; type: functional, cell-based; details: HCT-116, 72 h
HCT-116 [8] = assay: Cell cycle arrest in human HCT116 cells assessed as accumulation at subG1 phase at 1 uM after 24 hrs by propidium iodide staining-based FACS analysis (reference value: 2 +/- 0.1 %); type: functional
HCT-116 [9] = assay: Cell cycle arrest in human HCT116 cells assessed as accumulation at G2/M phase at 0.1 uM after 24 hrs by propidium iodide staining-based FACS analysis (reference value: 29 +/- 8 %); type: functional
HCT-116 [10] = assay: Cell cycle arrest in human HCT116 cells assessed as accumulation at subG1 phase after 24 hrs by propidium iodide staining-based FACS analysis; type: functional
HCT-116 [11] = assay: Cell cycle arrest in human HCT116 cells assessed as accumulation at G1 phase at 1 uM after 48 hrs by propidium iodide staining-based FACS analysis (reference value: 60 +/- 2 %); type: functional
HCT-116 [12] = assay: Cell cycle arrest in human HCT116 cells assessed as accumulation at subG1 phase at 5 uM after 24 hrs by propidium iodide staining-based FACS analysis; type: functional
HCT-116 [13] = assay: Cell cycle arrest in human HCT116 cells assessed as accumulation at G1 phase at 0.1 uM after 24 hrs by propidium iodide staining-based FACS analysis (reference value: 23 +/- 2 %); type: functional
[14] = biological target: T1, DNA topoisomerase 1 (Homo sapiens) (UniProt P11387); assay: Inhibition of human DNA topoisomerase 1 assessed as inhibition of DNA cleavage
T1 sequence (whole entry): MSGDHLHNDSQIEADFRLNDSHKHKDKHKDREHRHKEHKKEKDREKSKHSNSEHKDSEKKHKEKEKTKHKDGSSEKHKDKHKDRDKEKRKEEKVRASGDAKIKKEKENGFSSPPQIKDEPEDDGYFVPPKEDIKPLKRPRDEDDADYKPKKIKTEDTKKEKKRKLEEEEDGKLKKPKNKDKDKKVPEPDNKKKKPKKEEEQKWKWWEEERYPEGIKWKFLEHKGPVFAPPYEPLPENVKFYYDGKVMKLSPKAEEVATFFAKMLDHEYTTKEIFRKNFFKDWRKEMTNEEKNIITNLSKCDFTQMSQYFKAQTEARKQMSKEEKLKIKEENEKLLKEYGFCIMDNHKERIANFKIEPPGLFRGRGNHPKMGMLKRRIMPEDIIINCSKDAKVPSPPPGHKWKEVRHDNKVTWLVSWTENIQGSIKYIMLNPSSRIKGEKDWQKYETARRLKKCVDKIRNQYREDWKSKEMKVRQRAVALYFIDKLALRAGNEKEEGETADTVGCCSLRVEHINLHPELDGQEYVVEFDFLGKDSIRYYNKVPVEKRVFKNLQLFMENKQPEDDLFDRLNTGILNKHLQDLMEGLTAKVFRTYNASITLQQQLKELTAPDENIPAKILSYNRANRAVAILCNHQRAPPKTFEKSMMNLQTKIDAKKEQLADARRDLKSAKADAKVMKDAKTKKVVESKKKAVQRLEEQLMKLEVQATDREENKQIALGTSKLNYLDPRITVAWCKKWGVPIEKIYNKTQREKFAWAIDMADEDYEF

[15] = Binding affinity to DNA (unknown origin) at 1 to 10 uM after 15 mins by DNA footprinting assay
HCT-116 [16] = assay: Cell cycle arrest in human HCT116 cells assessed as accumulation at G2/M phase at 1 uM after 48 hrs by propidium iodide staining-based FACS analysis (reference value: 28 +/- 3 %); type: functional
Escherichia coli [17] = assay: Binding affinity to Escherichia coli pUC19 plasmid assessed as induction of topoisomerase1-mediated DNA relaxation at 1 uM incubated for 45 mins prior to topoisomerase1 addition by agarose gel electrophoresis
HCT-116 [18] = assay: Cell cycle arrest in human HCT116 cells assessed as accumulation at subG1 phase at 1 uM after 48 hrs by propidium iodide staining-based FACS analysis (reference value: 5 +/- 2 %); type: functional
HCT-116 [19] = assay: Cell cycle arrest in human HCT116 cells assessed as accumulation at S phase at 1 uM after 48 hrs by propidium iodide staining-based FACS analysis (reference value: 12+/- 5 %); type: functional
HCT-116 [20] = assay: Cell cycle arrest in human HCT116 cells assessed as accumulation at subG1 phase at 0.1 uM after 48 hrs by propidium iodide staining-based FACS analysis (reference value: 5 +/- 2 %); type: functional
HCT-116 [21] = assay: Cell cycle arrest in human HCT116 cells assessed as accumulation at G2/M phase at 0.1 uM after 48 hrs by propidium iodide staining-based FACS analysis (reference value: 28 +/- 3 %); type: functional
HCT-116 [22] = assay: Cell cycle arrest in human HCT116 cells assessed as accumulation at S phase at 0.1 uM after 48 hrs by propidium iodide staining-based FACS analysis (reference value: 12+/- 5 %); type: functional
[23] = Cytotoxicity against human H460 cells after 72 hrs by MTT assay; type: functional, cell-based; details: NCI-H460, 72 h
Calf thymus DNA [24] = assay: Binding affinity to calf thymus DNA assessed as change in melting temperature at 0.5 drug/DNA ratio by spectrophotometry; type: nucleic-acid assay; details: Bos taurus
HCT-116 [25] = assay: Cell cycle arrest in human HCT116 cells assessed as accumulation at G1 phase at 0.1 uM after 48 hrs by propidium iodide staining-based FACS analysis (reference value: 60 +/- 2 %); type: functional
Calf thymus DNA [26] = assay: Binding affinity to calf thymus DNA assessed as DNA intercalation by circular dichroism analysis; type: nucleic-acid assay; details: Bos taurus
HCT-116 [27] = assay: Cell cycle arrest in human HCT116 cells assessed as accumulation at subG1 phase at 0.1 uM after 24 hrs by propidium iodide staining-based FACS analysis (reference value: 2 +/- 0.1 %); type: functional
MCF7 = assay: Cytotoxicity against human MCF7 cells after 72 hrs by MTT assay; type: functional, cell-based; details: MCF7, 72 h
Escherichia coli [28] = assay: Binding affinity to Escherichia coli pUC19 plasmid assessed as nicked DNA at 0.1 to 5 uM by ethidium bromide staining-based agarose gel electrophoresis
DNA = assay: Induction of DNA damage in plasmid DNA in E. coli S30 cell-free system assessed as inhibition of EGFP translation at 50 uM after 1 hr by fluorescence assay
[29] = Drug uptake in human H460 cell nucleoli at 10 uM after 2 hrs by fluorescence microscopy; type: ADME, cell-based; details: h460, 2 h
Calf thymus DNA [30] = assay: Binding affinity to calf thymus DNA assessed as bathochromic shift at 20 uM by UV/visible spectrophotometry; type: nucleic-acid assay; details: Bos taurus

Activity (Homo sapiens): inactive
Activity (Calf thymus DNA [2]): Active
Drug uptake [6]: Active
Activity [14]: inactive
Activity [15]: Active
Activity (Escherichia coli [17]): Active
ΔTm (Calf thymus DNA [24]): 17.3 °C
Activity (Calf thymus DNA [26]): Dose-dependent effect
Activity (Escherichia coli [28]): Active
Drug uptake [29]: Active
Activity (Calf thymus DNA [30]): Active
Compound: N#Cc1cc2ccc(N3CCNCC3)cc2n2c1nc1ccccc12
Activity (HCT-116 [1]): 85%
Activity (HCT-116 [3]): 0%
Activity (HCT-116 [4]): 1%
Activity (HCT-116 [5]): 15%
IC50 (HCT-116 [7]): 60 nM
Activity (HCT-116 [8]): 12%
Activity (HCT-116 [9]): 80%
Activity (HCT-116 [10]): Dose-dependent effect
Activity (HCT-116 [11]): 30%
Activity (HCT-116 [12]): 40%
Activity (HCT-116 [13]): 19%
Activity (HCT-116 [16]): 69%
Activity (HCT-116 [18]): 12%
Activity (HCT-116 [19]): 1%
Activity (HCT-116 [20]): 11%
Activity (HCT-116 [21]): 30%
Activity (HCT-116 [22]): 11%
IC50 [23]: 200 nM
Activity (HCT-116 [25]): 59%
Activity (HCT-116 [27]): 2%
IC50 (MCF7): 200 nM
inhibition at 50 µM (DNA): 38%

From ChEMBL document CHEMBL3217548, “Biological activity and DNA binding studies of 2-substituted benzimidazo[1,2-a]quinolines bearing different amino side chains” (Medchemcomm, 2013)
